Data taken from patent publication US9745274B2, “Compound, organic cation transporter 3 detection agent, and organic cation transporter 3 activity inhibitor” (SHIN NIPPON BIOMEDICAL LABORATORIES, LTD., priority 2013, dated 2017).
Where two headings read alike, the source gives them in different places.

Assays:
[1] = various diagnostic methods in clinical trials, WO 01/93863; cited from earlier work
[2] = target: T1, human organic cation transporter 3 (hOCT3) (Homo sapiens, UniProt O75751); test: Histamine incorporation experiment in HEK293 cells expressing hOCT3 (OCT3 inhibition activity); type: cell-based; settings: control curve
T1 construct: expressed in transfected cells; host or cells: HEK293
T1 sequence (O75751 1-556): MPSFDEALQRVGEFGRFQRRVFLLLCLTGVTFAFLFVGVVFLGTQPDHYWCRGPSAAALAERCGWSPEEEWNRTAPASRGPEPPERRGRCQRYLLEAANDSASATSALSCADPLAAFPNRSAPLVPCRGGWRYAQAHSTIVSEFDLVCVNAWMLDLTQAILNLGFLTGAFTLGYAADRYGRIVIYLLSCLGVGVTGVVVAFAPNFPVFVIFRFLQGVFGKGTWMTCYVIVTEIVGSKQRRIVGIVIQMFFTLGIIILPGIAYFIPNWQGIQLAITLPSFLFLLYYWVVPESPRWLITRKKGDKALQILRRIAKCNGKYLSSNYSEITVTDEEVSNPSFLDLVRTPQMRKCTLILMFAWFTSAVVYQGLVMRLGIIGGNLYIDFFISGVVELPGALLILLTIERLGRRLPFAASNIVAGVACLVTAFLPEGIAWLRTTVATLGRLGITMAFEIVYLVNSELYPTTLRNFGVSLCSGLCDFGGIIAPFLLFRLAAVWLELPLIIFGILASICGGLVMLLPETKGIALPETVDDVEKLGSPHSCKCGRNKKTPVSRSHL

[3] = target: T2, OCT3 (Homo sapiens, UniProt O75751); settings: Sata et al., J Pharmacol Exp Ther. 2005, cited from earlier work
T2 sequence (O75751 1-556): T1 sequence (O75751 1-556)

[4] = target: T1, human organic cation transporter 3 (hOCT3); test: Histamine incorporation experiment in HEK293 cells expressing hOCT3 (OCT3 inhibition activity); type: cell-based; settings: Compound Concentration 10 μM
Method: In order to measure an activity that inhibits OCT3 from incorporating a substrate (OCT3 inhibition activity) for each compound, histamine incorporation experiments as described below were performed.
Histamine incorporation experiments were performed in accordance with a method disclosed in Br J Pharmacol. 2002; 136(6): 829-836. In the experiments, HEK293 cells were used. The HEK293 cell is a human embryonal renal cell strain expressing human organic cation transporter 3 (hOCT3). The HEK 293 cells were inoculated onto 24-well plates at 1.5×10^5 cells/well, and were cultivated overnight in a carbon dioxide incubator. Test substances were dissolved in 100% DMSO solution and then dissolved in HBSS-HEPES solution (buffer solution prepared by dissolving 9.7 g Hank's Balanced Salt, 1.4% sodium bicarbonate 25 mL, and 1M HEPES 25 mL in 940 mL ultra pure water, and by adjusting to pH7.4 with 1M sodium hydroxide). After removing culture media for cell culture, pretreatment was performed for 5 minutes with 1 mL HBSS-HEPES solution. Then, the test substance and [3H]histamine (final concentration 100 nM) were added to the cells and reacted for 1 minute at room temperature. After the reaction was completed, the reaction was stopped by ice-cooled HBSS-HEPES solution, extracellular fluid was aspirated by an aspirator, and then the cells were washed twice with HBSS-HEPES. After washing, the cells were dissolved in 0.5M sodium hydroxide solution. The amount of histamine in the cells was found by measuring a radioactivity in a cell lysis solution by a liquid scintillation counter. Protein content in the cells was measured by Lowry method (J Biol Chem. 1951; 193(1): 265-75) by using the cell lysis solution, and translated into histamine incorporation amount per protein content for each experiment. A histamine incorporation rate (%) in the presence of 30 μM of the test substance was calculated by regarding a histamine incorporation amount in a case of no incorporation inhibitor as 100% (control) of histamine incorporation rate. A value (%) obtained by subtracting the histamine incorporation rate from 100(%) was calculated as an OCT3 inhibition rate (%).
Note that a histamine incorporation rate (%) in the presence of 10 μM of the test substance was calculated by regarding a histamine incorporation amount in a case of no incorporation inhibitor as 100% (control) of histamine incorporation rate. A value (%) obtained by subtracting the histamine incorporation rate from 100(%) was calculated as an OCT3 inhibition rate (%). […]

[5] = system: Male ddY-strain mice; test: Forced swimming test (akinesis time); type: in vivo, mouse; settings: low dose administered independently: imipramine 4 mg/kg or OCT3 inhibitor 0.25 μl/hr
Description: In the forced swimming test, forced swimming is loaded on a mouse or rat as a test animal in a test tank from which the mouse or rat cannot escape. Then, after an escape behavior of the test animal, an akinesis (a state in which the test animal is floating with only its face out over the surface of the water and without moving legs) is confirmed. When the test animal is put in the test tank again after 24 or more hours later, the akinesis is expressed earlier than the first test. Duration of the akinesis within a predetermined time period (generally about 5 minutes) is reproduced relatively accurately.
Specifically, a test is performed as follows.
Male ddY-strain mice (Japan SLC, Inc.) having body weights of 28 to 33 g are used for an experiment. […] In the first forced swimming test, all of the laboratory mice are made to swim in a glass cylinder (diameter 15.5 cm, depth 17 cm, depth of water 12 cm, temperature of water 25° C.) for 300 seconds, the akinesis time are measured, and the mice are divided into experimental groups (OCT3 inhibitor administration group, positive control group, and negative control group) so that average values of these groups are almost identical. […] After one week from the injection, the mice are made to swim in the cylinder again for 300 seconds, and the akinesis time is measured for each of the mice. […]

Structure (SMILES) | antidepressant activity [1] | IC80 ([2]; HEK293) | IC50 [2] | OCT3 inhibition activity (in words) ([3]; listed as Famotidine) | OCT3 inhibition activity (in words) ([3]; listed as famotidine) | remaining activity at 10 µM ([4]; HEK293, 1 min, no inhibitor = 100%, read-out: Histamine Incorporation Rate to Control (%)) | inhibition at 10 µM ([4]; HEK293, 100% minus histamine incorporation rate) | average of the akinesis time [5]
NC(N)=Nc1nc(CSCCC(N)=NS(N)(=O)=O)cs1 [FAMOTIDINE, famotidine, reference compound] | antidepressant activity is confirmed | 330 µM | 67.6 µM | strong OCT3 inhibition activity | strong OCT3 activity inhibition action | 92.4% | 7.6% | –
CN(C)CCCN1c2ccccc2CCc2ccccc21 [imipramine] | – | – | – | – | – | – | – | about 200 seconds
